Assay results taken from ChEMBL document CHEMBL1156792, “Application of the dipeptidyl peptidase IV (DPPIV/CD26) based prodrug approach to different amine-containing drugs” (J Med Chem, 2010).
Peptide text beside a SMILES is read from it. * marks the point of attachment. X2 = OC[C@H]1O[C@@H](n2cnc3c(N*)ncnc32)[C@@H](O)[C@@H]1O

The compounds below were run against Dipeptidyl peptidase 4 (Homo sapiens) (UniProt P27487) (assay: Ratio of Vmax/Km for human recombinant CD26 assessed as hydrolysis).
Sequence of Dipeptidyl peptidase 4 (Homo sapiens) (P27487 whole entry, looked up): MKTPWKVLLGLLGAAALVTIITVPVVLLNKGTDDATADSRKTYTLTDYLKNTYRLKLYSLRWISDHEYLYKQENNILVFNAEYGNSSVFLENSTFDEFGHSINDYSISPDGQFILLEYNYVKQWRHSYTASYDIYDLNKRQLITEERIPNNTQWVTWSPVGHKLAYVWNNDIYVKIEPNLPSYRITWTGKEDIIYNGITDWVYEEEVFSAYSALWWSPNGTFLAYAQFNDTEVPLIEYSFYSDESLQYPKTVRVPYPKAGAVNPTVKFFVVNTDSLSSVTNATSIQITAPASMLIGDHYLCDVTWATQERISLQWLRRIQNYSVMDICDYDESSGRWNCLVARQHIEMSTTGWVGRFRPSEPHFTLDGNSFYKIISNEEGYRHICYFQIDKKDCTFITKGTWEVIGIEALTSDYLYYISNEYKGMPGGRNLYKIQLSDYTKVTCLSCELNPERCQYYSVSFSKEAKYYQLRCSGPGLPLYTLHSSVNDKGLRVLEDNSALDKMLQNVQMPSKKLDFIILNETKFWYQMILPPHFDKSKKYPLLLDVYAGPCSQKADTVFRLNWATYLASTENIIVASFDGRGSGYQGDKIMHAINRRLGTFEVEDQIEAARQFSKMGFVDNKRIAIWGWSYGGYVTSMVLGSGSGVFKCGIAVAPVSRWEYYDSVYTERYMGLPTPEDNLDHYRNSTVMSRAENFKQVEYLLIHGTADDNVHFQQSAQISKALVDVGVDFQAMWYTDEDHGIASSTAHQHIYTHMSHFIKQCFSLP

| Vmax/Km | Structure (SMILES) |
| --- | --- |
| 0.13 | N[C@@H](CC(=O)O)C(=O)N1CCC[C@H]1C(=O)Nc1ccc2ncccc2c1 |
| 0.5 | COc1cccc2c1C(=O)c1c(O)c3c(c(O)c1C2=O)C[C@@](O)(C(=O)CO)C[C@@H]3O[C@H]1C[C@H](NC(=O)[C@@H]2CCCN2C(=O)[C@@H](N)C(C)C)[C@H](O)[C@H](C)O1 |
| 1.3 | CC(C)[C@H](N)C(=O)N1CCC[C@H]1C(=O)Nc1ccc2ncccc2c1 |

| Structure (SMILES) | Vmax/Km |
| --- | --- |
| CC(C)[C@H](N)C(=O)N1CCC[C@H]1C(=O)N[C@H](C(=O)N1CCC[C@H]1C(=O)Nc1ncnc2c1ncn2[C@@H]1O[C@H](CO)[C@@H](O)[C@@H]1O)C(C)C (H-VPVP-X2) | 0.18 |
